According to the supplement of paper PMC10307832:

Key:
Assay in all cases: relative viability (nuclei count vs DMSO), 5 days (fraction); higher = more cells survive
Ispinesib + Luminespib = compound: Cc1ccc(C(=O)N(CCCN)[C@@H](c2nc3cc(Cl)ccc3c(=O)n2Cc2ccccc2)C(C)C)cc1 [Ispinesib] + CCNC(=O)c1noc(-c2cc(C(C)C)c(O)cc2O)c1-c1ccc(CN2CCOCC2)cc1 [Luminespib] (partner 0.01 µM)
Outline: (§1)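 The day after seeding in 1536-well plates, lung cancer cell lines were treated by pin tool with a single drug, or with a fixed anchor-drug dose together with five library-drug doses (not always all listed) in √10 steps. After 5 days, a combined fix-and-stain solution (final 0.05% Triton X-100, 1% formaldehyde, 1 ug/ml Hoechst) was added. Nuclei counted on 4× images gave relative viability as treated counts over vehicle counts, reported as the median of duplicate plates.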

Linsitinib + Olaparib = compound: C[C@]1(O)C[C@@H](c2nc(-c3ccc4ccc(-c5ccccc5)nc4c3)c3c(N)nccn32)C1 [Linsitinib] + O=C(c1cc(Cc2n[nH]c(=O)c3ccccc23)ccc1F)N1CCN(C(=O)C2CC2)CC1 [Olaparib] (partner 8 µM)
Outline: as §1

Linsitinib + Tozasertib = compound: C[C@]1(O)C[C@@H](c2nc(-c3ccc4ccc(-c5ccccc5)nc4c3)c3c(N)nccn32)C1 [Linsitinib] + Cc1cc(Nc2cc(N3CCN(C)CC3)nc(Sc3ccc(NC(=O)C4CC4)cc3)n2)n[nH]1 [Tozasertib] (partner 0.1 µM)
Outline: as §1

Ispinesib + Dasatinib = compound: Cc1ccc(C(=O)N(CCCN)[C@@H](c2nc3cc(Cl)ccc3c(=O)n2Cc2ccccc2)C(C)C)cc1 [Ispinesib] + Cc1nc(Nc2ncc(C(=O)Nc3c(C)cccc3Cl)s2)cc(N2CCN(CCO)CC2)n1 [Dasatinib] (partner 0.075 µM)
Outline: as §1

| Cell Line | relative viability (Ispinesib + Luminespib; first compound 0.001 µM) | relative viability (Ispinesib + Luminespib; first compound 0.003162 µM) | relative viability (Ispinesib + Luminespib; first compound 0.01 µM) | relative viability (Ispinesib + Luminespib; first compound 0.03162 µM) | relative viability (Ispinesib + Luminespib; first compound 0.1 µM) | relative viability (Linsitinib + Olaparib; first compound 0.03162 µM) | relative viability (Linsitinib + Olaparib; first compound 0.1 µM) | relative viability (Linsitinib + Olaparib; first compound 0.3162 µM) | relative viability (Linsitinib + Olaparib; first compound 1 µM) | relative viability (Linsitinib + Tozasertib; first compound 0.01 µM) | relative viability (Linsitinib + Tozasertib; first compound 0.03162 µM) | relative viability (Linsitinib + Tozasertib; first compound 0.1 µM) | relative viability (Linsitinib + Tozasertib; first compound 1 µM) | relative viability (Ispinesib + Dasatinib; first compound 0.001 µM) | relative viability (Ispinesib + Dasatinib; first compound 0.003162 µM) | relative viability (Ispinesib + Dasatinib; first compound 0.01 µM) | relative viability (Ispinesib + Dasatinib; first compound 0.03162 µM) | relative viability (Ispinesib + Dasatinib; first compound 0.1 µM) | relative viability (Linsitinib + Olaparib; first compound 0.01 µM) | relative viability (Linsitinib + Tozasertib; first compound 0.3162 µM) |
| --- | --- | --- | --- | --- | --- | --- | --- | --- | --- | --- | --- | --- | --- | --- | --- | --- | --- | --- | --- | --- |
| HOP-62 | 0.899 | 1.02 | 0.93 | 0.794 | 0.814 | 0.247 | 0.524 | 0.244 | 0.393 | 0.356 | 0.336 | 0.335 | 0.344 | 0.815 | 0.824 | 0.837 | 0.534 | 0.251 |  |  |
| LC-2-ad | 1.08 | 1.3 | 1.05 | 0.915 | 0.396 | 0.751 | 0.73 | 0.625 | 0.685 | 0.48 | 0.523 | 0.387 | 0.41 | 0.566 | 0.716 | 0.737 | 0.318 | 0.133 | 0.621 | 0.285 |
| NCI-H522 | 1.02 | 1.1 | 1.17 | 0.922 | 1.11 | 0.588 | 0.554 | 0.512 | 0.57 | 0.525 | 0.516 | 0.521 | 0.514 | 0.723 | 1.11 | 1.05 | 0.634 | 0.401 | 0.895 |  |
| NCI-H322M | 0.992 | 0.888 | 0.729 | 0.612 | 0.58 | 0.875 | 0.87 | 0.772 | 0.798 | 0.44 | 0.455 | 0.568 | 0.463 | 0.271 | 0.244 | 0.233 | 0.252 | 0.288 | 0.746 | 0.399 |
| SK-LU-1 | 0.212 | 0.224 | 0.219 | 0.194 | 0.178 | 0.419 | 0.552 | 0.41 | 0.468 | 0.357 |  | 0.383 | 0.243 | 0.173 | 0.173 | 0.173 | 0.144 | 0.112 | 0.428 | 0.203 |
| NCI-H1734 | 0.179 | 0.0914 | 0.177 | 0.192 | 0.157 | 0.625 | 0.593 | 0.57 | 0.535 | 0.242 | 0.244 | 0.274 | 0.267 | 0.428 | 0.53 | 0.53 | 0.337 | 0.187 | 0.592 | 0.242 |
| HCC-44 | 1.25 | 1.07 | 1.02 | 1.1 | 0.555 | 0.924 | 1 | 0.858 | 0.916 | 1.1 | 0.889 | 0.849 | 0.573 |  |  |  |  |  | 1.01 | 0.557 |
| NCI-H1703 |  |  |  |  |  |  | 0.448 | 0.755 | 0.189 |  |  |  |  |  |  |  |  |  | 0.479 |  |
| NCI-H2170 | 0.74 | 0.53 | 0.964 | 0.351 | 0.448 | 0.519 | 0.598 |  | 0.506 | 0.732 | 0.76 | 0.681 | 0.678 | 0.639 | 0.583 | 0.58 | 0.294 | 0.201 | 0.533 | 0.513 |
| NCI-H1395 | 0.793 | 0.769 | 0.817 | 0.655 | 0.447 |  | 0.441 | 0.454 | 0.444 | 0.838 | 0.768 | 0.723 | 0.667 | 0.432 | 0.419 | 0.713 | 0.354 | 0.333 | 0.451 | 0.731 |
| NCI-H1355 | 0.702 | 0.729 | 0.881 | 0.598 | 0.488 | 0.742 | 0.628 | 0.483 | 0.353 | 0.584 | 0.576 | 0.475 | 0.428 | 0.82 | 0.836 | 0.625 | 0.379 | 0.423 | 0.741 | 0.458 |
| NCI-H1650 | 0.182 | 0.185 | 0.217 | 0.181 | 0.198 | 0.954 | 0.883 | 0.735 | 0.523 | 0.412 | 0.549 | 0.412 | 0.288 | 0.35 | 0.353 | 0.349 | 0.186 | 0.151 | 0.871 | 0.323 |
| IA-LM |  |  |  |  |  | 0.976 | 0.871 | 0.796 | 0.75 |  |  |  |  |  |  |  |  |  | 0.906 |  |
| NCI-H1666 | 1 | 0.973 | 0.946 | 0.887 | 0.501 | 1.02 | 0.76 | 0.667 | 0.75 | 0.595 | 0.628 | 0.587 | 0.434 | 0.864 | 0.894 | 0.776 | 0.594 | 0.419 | 0.743 | 0.545 |
| HCC-78 |  |  |  |  |  | 1 | 0.706 | 0.916 | 0.506 | 0.643 | 0.482 | 0.418 | 0.319 | 0.388 | 0.542 | 0.464 | 0.348 | 0.267 |  | 0.378 |
